“Also recorded” adds a separate entry of the source.
How the values were obtained:
[1] = system: APC premature stop codon C1450X; assay: Yeast APC premature stop codon URA3/ADE2 reporter spot test on plates; type: cell-based; settings: 20 ug/ml G418, spot test, 3-5 days at 30° C., Pgal1-APCmut-URA3/ADE2 strain
Text: A nucleic acid sequence containing a nonsense mutation was introduced into a yeast expression construct under the transcriptional control of a promoter e.g., an inducible promoter such as a galactose inducible promoter. The nucleic acid sequence containing the nonsense mutation was fused to a first marker gene such as URA3 and/or ADE2 (or other gene that results in an auxotroph if the gene is not transcribed and translated). The plasmid was integrated into an intergenic region in the genome of a modified yeast strain harboring deletion of ura3 and/or ade2 using conventional LiAc yeast transformation methods. Integrants were selected on media plates containing the antibiotic Hygromycin B or lacking histidine selecting for the marker present on the expression plasmid. Integrated strains were incubated with test compounds and plated on relevant growth media. Suitable test compounds include, for example, libraries of small molecules or expression libraries. […] Production of URA3 allowed the yeast cells to grow and form colonies on media lacking uracil after 2-4 days incubation at 30° C. Production of ADE2 conferred a white coloration of the yeast colonies and allowed the yeast cells to grow and form colonies on media plates lacking adenine after 2-4 days incubation at 30° C. […]
Next, the yeast strains were tested for read-through of the stop codon in the presence of the aminoglycoside G418. […]

[2] = system: native stop codons in human genes (V-ATPase, Mdm2, ArhGAP1, DAT and PKCb, and striatin); assay: Yeast URA3 reporter spot test with native stop codons of human genes; type: cell-based
Text: In a similar set-up, read-through of 6 native stop codons in human genes (V-ATPase, Mdm2, ArhGAP1, DAT and PKCb, and striatin) was examined in front of the URA3 reporter system. […] A representative spot-test analysis is shown in FIG. 3B, where a strain containing the native stop codon of the human striatin gene was compared with the strain containing the APC premature stop codon mutant.

[3] = system: APC premature stop codon luciferase reporter; assay: Dual Luciferase Assay, yeast APC premature stop codon Fluc reporter; type: cell-based; settings: haploid and diploid strains (EFSC2740), compared to vehicle only (DMSO), triplicate
Description: To assess functionality of the Fluc reporter system, a luciferase activity protocol for the Dual Luciferase® Assay kit (Promega) was optimized to be able to test yeast strains in 96-well format. A representative experiment is outlined here. The yeast were incubated for 30° C. overnight. The luciferase assay was performed according to manufacturer's recommended protocol. Briefly, yeast cells were resuspended in SCgal culture media and measured at A600. A 10 uL sample was transferred to a white-opaque-bottom 96-well plate, mixed with 50 uL of passive lysis buffer and incubated at room-temperature for 20-30 minutes with gentle shaking. Next, 50 uL of luciferase assay reagent II and 50 uL of Stop & Glo® reagent were added. The plate was read in a plate reader using a dual luciferase program. The remaining yeast culture was maintained at 30° C. and the luciferase assays was performed daily.
The results of the above Dual Luciferase® Assay experiment are shown in FIG. 4 (samples were tested in triplicate and data was analyzed by GraphPad® with error bars showing mean with 95% confidence interval). Here, 3 different integration sites for the Fluc reporter were analyzed both in a haploid assay strain and in a diploid setting in the presence of aminoglycosides G418 and paromomycin. […]

[4] = system: P53 STOP (TAA198), P53 STOP (TAG221), P53 STOP (TGA196); assay: Yeast p53 stop codon URA3 reporter suppression on SCgal-ura plates; type: cell-based
Description: In addition to the APC stop-codon assay, other oncology targets including p53 were analyzed. Here, yeast strains were engineered with PGAL1-P53 STOP (TAA198)-URA3 (EFSC2231 and EFSC2233), PGAL1-P53 STOP (TAG221)-URA3 (EFSC2186 and EFSC2200) and PGAL1-P53 STOP (TGA196)-URA3 (EFSC2232 and EFSC2201) reporter integrated at the PRP5 locus. The strains were tested for suppression with G418 on SCgal-ura plates supplemented with increasing G418 concentrations.

[5] = system: premature stop codon in APC; assay: Liquid suppression test, strain EFSC2686, APC premature stop codon URA3 reporter; type: cell-based, yeast
Description: Liquid suppression tests were also conducted with a different aminoglycoside, paromomycin. Read-through of the premature stop codon in APC was also observed after liquid cultivation of the strain in the presence of increasing concentrations of the aminoglycoside paromomycin. Here, strain EFSC2686 was grown in SCgal-ura media in the presence of increasing amounts of drug (0-500 uM) and growth rate was monitored on a daily basis. The presence of ≧250 uM paromomycin supports growth in SCgal media lacking uracil after 4 days incubation (see FIG. 3C).

Structure (SMILES) | read-through of the APC premature stop codon (growth on SCgal-ura plates) [1] | selectivity of suppression, premature versus native stop codons ([2]; 20 ug/ml G418, APC mutant versus 6 native stop codons) | read-through of native stop codons (growth on SCgal-uracil) ([2]; SCgal-uracil + 20 ug/ml G418, 6 native stop codons) | Firefly luciferase activity [3] | order of suppression response by stop codon ([4]; G418, SCgal-ura plates) | expression of Ura3p, growth on SCgal-ura3 plates ([4]; increasing G418 concentrations, TAA198, TAG221 and TGA196 strains, all cases) | suppression of the APC stop codon, production of URA3 protein ([5]; liquid cultivation, FIG. 3C) | paromomycin concentration that supports growth in SCgal media lacking uracil ([5]; strain EFSC2686, 0-500 uM tested, after 4 days incubation)
CN[C@@H]1[C@@H](O)[C@@H](O[C@@H]2[C@@H](O)[C@H](O[C@H]3O[C@H]([C@@H](C)O)[C@@H](O)[C@H](O)[C@H]3N)[C@@H](N)C[C@H]2N)OC[C@]1(C)O [G418] | allows translation read-through of the APC gene; also recorded: triggered read-through of the stop codon | selective for premature stop codons | no detectable read-through of stop codon was observed | able to induce luciferase activity; also recorded: robust and significant Firefly luciferase activity | TGA>TAG>TAA | able to trigger expression of Ura3p | – | –
NC[C@@H]1O[C@H](O[C@H]2[C@@H](O)[C@H](O[C@@H]3[C@@H](O)[C@H](N)C[C@H](N)[C@H]3O[C@H]3O[C@H](CO)[C@@H](O)[C@H](O)[C@H]3N)O[C@@H]2CO)[C@H](N)[C@@H](O)[C@@H]1O [paromomycin] | – | – | – | able to induce luciferase activity | – | – | leads to suppression of the APC stop codon and production of URA3 protein | ≥ 250 µM

Reference: patent US20170306322A1, “METHODS AND MATERIALS FOR IDENTIFYING COMPOUNDS PROMOTING TRA[…]-THROUGH OF NONSENSE MUTATIONS” (Evolva SA, priority 2013, published 2017)
